Tests used:
[1] = Stability study under accelerated conditions (40° C., 75% humidity); type: physicochemical; conditions: aqueous solution in the selected bottles and filling conditions, humidity 75%
Protocol: Finally, it will be noted that the applicant has carried out a study of stability under accelerated conditions intended to anticipate stabilities on a scale of 3 years. To this effect, bottles were placed in a chamber thermostated at a temperature of 40° C. and in an atmosphere having a humidity of 75%. Samples were regularly collected and then analyzed.

[2] = plastic material free of PVC in direct contact; period of at least one year; cited from earlier work
[3] = Stability of aqueous oxaliplatin preparations in type I glass bottles under normal conditions (25° C., 60% relative humidity), total impurities by HPLC; type: physicochemical; conditions: for Level of impurity 5 years: 2 mg/ml, 50 ml bottle (ratio 0.12); for Level of impurity 5 years / Level of impurity 1 month / Level of impurity 2.5 months / Level of impurity 4 months / Level of impurity 5.5 months / Level of impurity 7 months / Level of impurity 10 months: 25° C./60% RH
Protocol: To carry out this trial, four series of bottles, consisting of a colorless type I glass, all of cylindrical shape but of different volumes, were used. Table 2 assembles, for each series of bottles, their so-called “useful” capacity, their so-called “brim” capacity, the inner diameter of these bottles, that of their neck and their height.
These bottles, used for the first time, were subjected beforehand to three cycles of washing and rinsing with hot water heated to about 50° C. and water of so-called PI grade before being dried.
Three oxaliplatin stock solutions at concentrations of 2 mg/ml, 5 mg/ml and 7 mg/ml, respectively, were prepared in the usual manner using PI grade water as solvent. No particular stabilizing agent was used.
Aliquots of these preparations were collected and then transferred under aseptic filling conditions into different bottles so as to reach the respective level corresponding to the heights indicated below. The bottles were then hermetically closed by seaming a cap.
For studies of stability under normal conditions, a first portion of these bottles were then placed in a first chamber thermostated at a temperature of 25° C. and at a relative humidity of 60%. These bottles were maintained upright and at rest without particular stirring for the periods indicated below.
Samples were collected at the periods indicated and then analyzed by high-performance liquid chromatography according to a conventional method in order to quantify the level of noncharacterized total impurities, expressed as a percentage by weight, relative to the quantities of oxaliplatin present in each of the samples.
This study was performed on groups of bottles having a useful capacity of 5 ml, 15 ml and 20 ml, respectively, filled as described above with aliquots of a stock solution at a concentration of 5 mg/ml, and then stored under the conditions mentioned above for a period of at least 10 months.
Samples were collected at periods of 1 month, and then 2.5 months, 4 months, 5.5 months, 7 months and 10 months, respectively, after bottling.
This study was performed as above, with the difference that the bottles were loaded with aliquots of a stock solution at a concentration of 7 mg/ml and samples were collected at the same periods.
This study was performed on three batches of bottles having the same useful capacity of 50 ml, filled as described above with aliquots of the same volume of a stock solution at a concentration of 2 mg/ml, and then stored under the conditions mentioned above for a period of 5 years. At the end of this period, samples were collected for analysis.

[4] = 5 mg/ml, 5 ml bottle (ratio 0.26)
[5] = 5 mg/ml, 15 ml bottle (ratio 0.20)
[6] = 5 mg/ml, 20 ml bottle (ratio 0.17)
[7] = deduced from curve of FIG. 1 (4 months), c=5 mg/ml
[8] = deduced from curve of FIG. 2 (4 months), printed c=5 mg/ml

## O=C1[O][Pt]2([NH][C@@H]3CCCC[C@H]3[NH]2)[O]C1=O [oxaliplatin, Oxaliplatin]
[1]
  period of storage suggested by accelerated stability study: at least 36 months
[2]
  degradation on preservation in flexible bags for infusion: no degradation
[3]; batch 1
  Level of impurity 5 years: 1.47 % by weight
[3]; batch 2
  Level of impurity 5 years: 1.56 % by weight
[3]; batch 3
  Level of impurity 5 years: 1.55 % by weight
[3]; 5 mg/ml aqueous solution, bottle useful capacity 5 ml (surface area/volume ratio 0.26)
  Level of impurity 1 month: 2.34 % by weight
[3]; [4]
  Level of impurity 2.5 months: 2.55 % by weight
  Level of impurity 4 months: 2.89 % by weight
  Level of impurity 5.5 months: 2.70 % by weight
  Level of impurity 7 months: 3.19 % by weight
  Level of impurity 10 months: 3.64 % by weight
[3]; [5]
  Level of impurity 1 month: 1.15 % by weight
  Level of impurity 2.5 months: 1.16 % by weight
  Level of impurity 4 months: 1.23 % by weight
  Level of impurity 5.5 months: 1.50 % by weight
  Level of impurity 7 months: 1.56 % by weight
  Level of impurity 10 months: 1.59 % by weight
[3]; [6]
  Level of impurity 1 month: 1.06 % by weight
  Level of impurity 2.5 months: 1.11 % by weight
  Level of impurity 4 months: 1.13 % by weight
  Level of impurity 5.5 months: 1.38 % by weight
  Level of impurity 7 months: 1.42 % by weight
  Level of impurity 10 months: 1.45 % by weight
[3]; 7 mg/ml, 5 ml bottle
  Level of impurity 1 month: 1.87 % by weight
  Level of impurity 2.5 months: 2.09 % by weight
  Level of impurity 4 months: 2.33 % by weight
  Level of impurity 5.5 months: 2.56 % by weight
  Level of impurity 7 months: 2.75 % by weight
  Level of impurity 10 months: 2.98 % by weight
[3]; 7 mg/ml, 15 ml bottle
  Level of impurity 1 month: 0.96 % by weight
  Level of impurity 2.5 months: 1.03 % by weight
  Level of impurity 4 months: 1.12 % by weight
  Level of impurity 5.5 months: 1.19 % by weight
  Level of impurity 7 months: 1.23 % by weight
  Level of impurity 10 months: 1.30 % by weight
[3]; 7 mg/ml, 20 ml bottle
  Level of impurity 1 month: 0.70 % by weight
  Level of impurity 2.5 months: 0.81 % by weight
  Level of impurity 4 months: 0.97 % by weight
  Level of impurity 5.5 months: 1.04 % by weight
  Level of impurity 7 months: 1.07 % by weight
  Level of impurity 10 months: 1.11 % by weight
[3]; [7]
  R0, theoretical maximum surface area/volume ratio for which no impurity would be quantifiable: 0.10
  constant A of R=R0+A.c.I: 0.01 ml/(mg.m)
[3]; [8]
  R0, theoretical maximum surface area/volume ratio for which no impurity would be quantifiable: 0.11
  constant A of R=R0+A.c.I: 0.009 ml/(mg.m)
